Laboratory results: ChEMBL document CHEMBL1255426, “Single-dose pharmacokinetics of famciclovir in infants and population pharmacokinetic analysis in infants and children” (Antimicrob Agents Chemother, 2010)

Experiments:
Homo sapiens [1] = assay: Tmax in 1 to <3 months old infant assessed as penciclovir at 6.6 +/- 1.4 mg/kg, po single dose; assay type: ADME, organism-based; set-up: route oral; settings: in vivo
Homo sapiens [2] = assay: Cmax in 1 to <3 months old infant assessed as penciclovir at 6.6 +/- 1.4 mg/kg, po single dose; assay type: ADME, organism-based; set-up: route oral; settings: in vivo
Homo sapiens [3] = assay: AUC (0 to 6 hrs) in 1 to <3 months old infant assessed as penciclovir at 6.6 +/- 1.4 mg/kg, po single dose; assay type: ADME, organism-based, Plasma; set-up: time < 6 hr, route oral; settings: in vivo
Homo sapiens [4] = assay: Tmax in 2 to <6 months old infant assessed as penciclovir at 6.6 +/- 1.4 mg/kg, po single dose; assay type: ADME, organism-based; set-up: route oral; settings: in vivo
Homo sapiens [5] = assay: Cmax in 2 to <6 months old infant assessed as penciclovir at 6.6 +/- 1.4 mg/kg, po single dose; assay type: ADME, organism-based; set-up: route oral; settings: in vivo
Homo sapiens [6] = assay: AUC (0 to 6 hrs) in 2 to <6 months old infant assessed as penciclovir at 6.6 +/- 1.4 mg/kg, po single dose; assay type: ADME, organism-based, Plasma; set-up: time < 6 hr, route oral; settings: in vivo
Homo sapiens [7] = assay: Tmax in 6 to 12 months old infant assessed as penciclovir at 6.6 +/- 1.4 mg/kg, po single dose; assay type: ADME, organism-based; set-up: route oral; settings: in vivo
Homo sapiens [8] = assay: Cmax in 6 to 12 months old infant assessed as penciclovir at 6.6 +/- 1.4 mg/kg, po single dose; assay type: ADME, organism-based; set-up: route oral; settings: in vivo
Homo sapiens [9] = assay: AUC (0 to 6 hrs) in 6 to 12 months old infant assessed as penciclovir at 6.6 +/- 1.4 mg/kg, po single dose; assay type: ADME, organism-based, Plasma; set-up: time < 6 hr, route oral; settings: in vivo
Homo sapiens [10] = assay: Toxicity in 1 to 12 months old infant assessed as adverse events at 13.5 mg/kg, po single dose within 8 days; assay type: organism-based; set-up: dose 13.5 mg/kg, route oral; settings: in vivo, 192 h
Homo sapiens [11] = assay: Toxicity in 1 to 12 months old infant assessed as mild adverse events at 13.5 mg/kg, po single dose within 8 days; assay type: organism-based; set-up: dose 13.5 mg/kg, route oral; settings: in vivo, 192 h
Homo sapiens [12] = assay: Toxicity in 1 to 12 months old infant assessed as moderate adverse events at 13.5 mg/kg, po single dose within 8 days; assay type: organism-based; set-up: dose 13.5 mg/kg, route oral; settings: in vivo, 192 h
Homo sapiens [13] = assay: Toxicity in 1 to 12 months old infant assessed as severe adverse events at 13.5 mg/kg, po single dose within 8 days; assay type: organism-based; set-up: dose 13.5 mg/kg, route oral; settings: in vivo, 192 h

Compound: CC(=O)OCC(CCn1cnc2cnc(N)nc21)COC(C)=O [FAMCICLOVIR]
- Tmax (Homo sapiens [1]): 1 h
- Cmax (Homo sapiens [2]): 690 ng/mL
- AUC (Homo sapiens [3]): 2110 ng·h/mL
- Tmax (Homo sapiens [4]): 4 h
- Cmax (Homo sapiens [5]): 740 ng/mL
- AUC (Homo sapiens [6]): 3160 ng·h/mL
- Tmax (Homo sapiens [7]): 1.02 h
- Cmax (Homo sapiens [8]): 3240 ng/mL
- AUC (Homo sapiens [9]): 8770 ng·h/mL
- Activity (Homo sapiens [10]): 44.4%
- Activity (Homo sapiens [11]): 16.7%
- Activity (Homo sapiens [12]): 22.2%
- Activity (Homo sapiens [13]): 5.6%
